Patent US20230150970A1, “AMINOPYRIMIDINE DERIVATIVES AND THEIR USE AS ARYL HYDROCARBON RECEPTOR MODULATORS” (DONG-A ST CO., LTD., priority 2020, published 2023)

Molecular target: T1, AhR (Homo sapiens, UniProt P35869)
T1 sequence (P35869 11-848): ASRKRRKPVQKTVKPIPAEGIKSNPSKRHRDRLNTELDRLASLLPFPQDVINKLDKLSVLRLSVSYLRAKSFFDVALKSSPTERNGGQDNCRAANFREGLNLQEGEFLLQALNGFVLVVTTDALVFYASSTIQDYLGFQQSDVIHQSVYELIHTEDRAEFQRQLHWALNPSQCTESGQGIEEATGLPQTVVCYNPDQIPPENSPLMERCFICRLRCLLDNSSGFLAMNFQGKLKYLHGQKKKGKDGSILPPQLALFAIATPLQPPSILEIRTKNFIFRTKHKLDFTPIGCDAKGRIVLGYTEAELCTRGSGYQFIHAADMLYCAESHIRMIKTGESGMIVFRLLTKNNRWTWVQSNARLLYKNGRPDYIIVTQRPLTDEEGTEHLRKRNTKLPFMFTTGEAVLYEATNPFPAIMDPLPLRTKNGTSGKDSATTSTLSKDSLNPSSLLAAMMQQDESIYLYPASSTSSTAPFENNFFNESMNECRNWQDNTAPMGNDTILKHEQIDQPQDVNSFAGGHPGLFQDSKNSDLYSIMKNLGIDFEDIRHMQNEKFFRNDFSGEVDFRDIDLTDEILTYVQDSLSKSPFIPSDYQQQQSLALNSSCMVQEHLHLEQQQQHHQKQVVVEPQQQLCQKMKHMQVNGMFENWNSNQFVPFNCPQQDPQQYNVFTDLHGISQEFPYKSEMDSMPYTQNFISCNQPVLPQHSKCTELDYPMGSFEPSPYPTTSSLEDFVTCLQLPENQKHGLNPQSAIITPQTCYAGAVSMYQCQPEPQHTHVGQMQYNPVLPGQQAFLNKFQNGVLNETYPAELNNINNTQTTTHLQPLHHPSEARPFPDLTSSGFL
Test: In Vitro Assay 1: XRE-luciferase reporter assay, antagonism in human cell line (HepG2)
Conditions: Assay 1: AhR-Luc Human Antagonism (IC50, nM), unmarked values: kynurenine 200 μM, 6 hours

| SMILES | IC50 [nM] |
| --- | --- |
| OCC1CCN(c2cc(-c3ccc(Cl)cc3O)nc(-c3cccnc3)n2)CC1 [Example 271, 5-chloro-2-(6-(4-(hydroxymethyl)piperidin-1-yl)-2-(pyridin-3-yl)pyrimidin-4-yl)phenol] | < 10 |
| CC(C)(C)OC(=O)N1CCN(c2cc(-c3ccc(Cl)cc3)nc(-c3cccnc3)n2)C[C@H]1CO [Example 272, tert-butyl (S)-4-(6-(4-chlorophenyl)-2-(pyridin-3-yl)pyrimidin-4-yl)-2-(hydroxymethyl)piperazine-1-carboxylate] | 10 to 100 |
| CS(=O)(=O)Nc1ccc(-c2cc(N3CCC(CO)CC3)nc(-c3cccnc3)n2)cc1 [Example 274, N-(4-(6-(4-(hydroxymethyl)piperidin-1-yl)-2-(pyridin-3-yl)pyrimidin-4-yl)phenyl)methanesulfonamide] | > 1000 |
| CN1CCN(c2ccc(-c3cc(N4CCC(CO)CC4)nc(-c4cccnc4)n3)cc2)CC1 [Example 275, (1-(6-(4-(4-methylpiperazin-1-yl)phenyl)-2-(pyridin-3-yl)pyrimidin-4-yl)piperidin-4-yl)methanol] | 10 to 100 |
| OCC1CCN(c2cc(-c3c(F)cc(F)cc3F)nc(-c3cccnc3)n2)CC1 [Example 277, (1-(2-(pyridin-3-yl)-6-(2,4,6-trifluorophenyl)pyrimidin-4-yl)piperidin-4-yl)methanol] | 100 to 1000 |
| OC[C@@H]1CN(c2cc(-c3ccc(C(F)(F)F)cc3)nc(-c3cccnc3)n2)CCO1 [Example 279, (S)-(4-(2-(pyridin-3-yl)-6-(4-(trifluoromethyl)phenyl)pyrimidin-4-yl)morpholin-2-yl)methanol] | < 10 |
| OC[C@@H]1CCN(c2cc(-c3ccc(C(F)(F)F)cc3)nc(-c3cccnc3)n2)C[C@H]1F [Example 281, ((3S,4S)-3-fluoro-1-(2-(pyridin-3-yl)-6-(4-(trifluoromethyl)phenyl)pyrimidin-4-yl)piperidin-4-yl)methanol] | < 10 |
| O[C@H]1CN(c2cc(-c3ccc(Cl)cc3)nc(-c3cccnc3)n2)C[C@@H]1O [Example 284, (3S,4S)-1-(6-(4-chlorophenyl)-2-(pyridin-3-yl)pyrimidin-4-yl)pyrrolidine-3,4-diol] | < 10 |
| OCC1CCN(c2cc(-c3ccc(N4CCOCC4)cc3)nc(-c3cccnc3O)n2)CC1 [Example 285, 3-(4-(4-(hydroxymethyl)piperidin-1-yl)-6-(4-morpholinophenyl)pyrimidin-2-yl)pyridin-2-ol] | 10 to 100 |
| Cn1cc(-c2nc(-c3ccc(N4CCOCC4)cc3)cc(N3CCC(CO)CC3)n2)cn1 [Example 286, (1-(2-(1-methyl-1H-pyrazol-4-yl)-6-(4-morpholinophenyl)pyrimidin-4-yl)piperidin-4-yl)methanol] | 100 to 1000 |
| Cn1cc(-c2nc(-c3ccc(N4CCOCC4)c(F)c3)cc(N3CCC(CO)CC3)n2)cn1 [Example 287, (1-(6-(3-fluoro-4-morpholinophenyl)-2-(1-methyl-1H-pyrazol-4-yl)pyrimidin-4-yl)piperidin-4-yl)methanol] | 100 to 1000 |
| OCC1CCN(c2cc(-c3ccc4[nH]ncc4c3)nc(-c3cccnc3)n2)CC1 [Example 288, (1-(6-(1H-indazol-5-yl)-2-(pyridin-3-yl)pyrimidin-4-yl)piperidin-4-yl)methanol] | 100 to 1000 |
| O=C1Cc2cc(-c3cc(N4CCC(CO)CC4)nc(-c4cccnc4)n3)ccc2N1 [Example 290, 5-(6-(4-(hydroxymethyl)piperidin-1-yl)-2-(pyridin-3-yl)pyrimidin-4-yl)indolin-2-one] | > 1000 |
| O=C1COCCN1c1ccc(-c2cc(N3CCC(CO)CC3)nc(-c3cccnc3)n2)cc1 [Example 291, 4-(4-(6-(4-(hydroxymethyl)piperidin-1-yl)-2-(pyridin-3-yl)pyrimidin-4-yl)phenyl)morpholin-3-one] | > 1000 |
| O=C(O)c1ccc(-c2cc(N3CCC(CO)CC3)nc(-c3cccnc3)n2)cc1 [Example 292, 4-(6-(4-(hydroxymethyl)piperidin-1-yl)-2-(pyridin-3-yl)pyrimidin-4-yl)benzoic acid] | > 1000 |
| OCC1CCN(c2cc(-c3cncc(F)c3)nc(-c3cccnc3)n2)CC1 [Example 294, (1-(6-(5-fluoropyridin-3-yl)-2-(pyridin-3-yl)pyrimidin-4-yl)piperidin-4-yl)methanol] | 100 to 1000 |
| Oc1ncccc1-c1nc(-c2ccc(N3CCOCC3)nc2)cc(N2CC[C@H](O)C2)n1 [Example 295, (S)-3-(4-(3-hydroxypyrrolidin-1-yl)-6-(6-morpholinopyridin-3-yl)pyrimidin-2-yl)pyridin-2-ol] | > 1000 |
| O=[N+]([O-])c1cc(-c2cc(N3CC[C@H](O)C3)nc(-c3cccnc3)n2)ccc1F [Example 296, (S)-1-(6-(4-fluoro-3-nitrophenyl)-2-(pyridin-3-yl)pyrimidin-4-yl)pyrrolidin-3-ol] | > 1000 |
| O=[N+]([O-])c1cc(-c2cc(N3CC[C@H](O)C3)nc(-c3cccnc3)n2)ccc1N1CCOCC1 [Example 297, (S)-1-(6-(4-morpholino-3-nitrophenyl)-2-(pyridin-3-yl)pyrimidin-4-yl)pyrrolidin-3-ol] | > 1000 |

Second part, the compound after the results:

| IC50 [nM] | SMILES |
| --- | --- |
| 10 to 100 | Nc1cc(-c2cc(N3CC[C@H](O)C3)nc(-c3cccnc3)n2)ccc1N1CCOCC1 [Example 298, (S)-1-(6-(3-amino-4-morpholinophenyl)-2-(pyridin-3-yl)pyrimidin-4-yl)pyrrolidin-3-ol] |
| > 1000 | CC(=O)Nc1cc(-c2cc(N3CC[C@H](O)C3)nc(-c3cccnc3)n2)ccc1N1CCOCC1 [Example 299, (S)—N-(5-(6-(3-hydroxypyrrolidin-1-yl)-2-(pyridin-3-yl)pyrimidin-4-yl)-2-morpholinophenyl)acetamide] |
| 100 to 1000 | O[C@H]1CCN(c2cc(-c3ccc(F)nc3)nc(-c3cccnc3)n2)C1 [Example 300, (S)-1-(6-(6-fluoropyridin-3-yl)-2-(pyridin-3-yl)pyrimidin-4-yl)pyrrolidin-3-ol] |
| 100 to 1000 | CN(C)CCNc1ccc(-c2cc(N3CC[C@H](O)C3)nc(-c3cccnc3)n2)cn1 [Example 301, (S)-1-(6-(6-((2-(dimethylamino)ethyl)amino)pyridin-3-yl)-2-(pyridin-3-yl)pyrimidin-4-yl)pyrrolidin-3-ol] |
| > 1000 | CC1CN(c2ccc(-c3cc(N4CC[C@H](O)C4)nc(-c4cccnc4)n3)cn2)CC(C)O1 (stereo partly drawn) [Example 302, (3S)-1-(6-(6-(2,6-dimethylmorpholino)pyridin-3-yl)-2-(pyridin-3-yl)pyrimidin-4-yl)pyrrolidin-3-ol] |
| < 10 | O=S(=O)(CCO)N1CCN(c2cc(-c3ccc(Cl)cc3O)nc(-c3cccnc3)n2)CC1 [Example 303, 5-chloro-2-(6-(4-((2-hydroxyethyl)sulfonyl)piperazin-1-yl)-2-(pyridin-3-yl)pyrimidin-4-yl)phenol] |
| < 10 | Oc1cc(Cl)ccc1-c1cc(N2CC[C@H](O)C2)nc(-c2cccnc2O)n1 [Example 304, (S)-3-(4-(4-chloro-2-hydroxyphenyl)-6-(3-hydroxypyrrolidin-1-yl)pyrimidin-2-yl)pyridin-2-ol] |
| > 1000 | Nc1ccc(-c2cc(N3CC[C@H](O)C3)nc(-c3cccnc3)n2)cc1 [Example 305, (S)-1-(6-(4-aminophenyl)-2-(pyridin-3-yl)pyrimidin-4-yl)pyrrolidin-3-ol] |
| 10 to 100 | C=CS(=O)(=O)N1CCN(c2cc(-c3ccc(Cl)cc3)nc(-c3cccnc3)n2)CC1 [Example 306, 4-(4-chlorophenyl)-2-(pyridin-3-yl)-6-(4-(vinylsulfonyl)piperazin-1-yl)pyrimidine] |
| 10 to 100 | OCC1CCN(c2cc(-c3ccc(Cl)cc3Cl)nc(-c3cccnc3)n2)CC1 [Example 307, (1-(6-(2,4-dichlorophenyl)-2-(pyridin-3-yl)pyrimidin-4-yl)piperidin-4-yl)methanol] |
| 100 to 1000 | OC[C@@H]1CN(c2cc(-c3ccc(C(F)(F)F)cc3)nc(-c3cccnc3)n2)CCN1 [Example 308, (S)-(4-(2-(pyridin-3-yl)-6-(4-(trifluoromethyl)phenyl)pyrimidin-4-yl)piperazin-2-yl)methanol] |
| 10 to 100 | OC[C@H]1CN(c2cc(-c3ccc(C(F)(F)F)cc3)nc(-c3cccnc3)n2)CCN1 [Example 309, (R)-(4-(2-(pyridin-3-yl)-6-(4-(trifluoromethyl)phenyl)pyrimidin-4-yl)piperazin-2-yl)methanol] |
| 100 to 1000 | O=C(O)[C@@H]1CCN(c2cc(-c3ccc(C(F)(F)F)cc3)nc(-c3cccnc3)n2)C1 [Example 310, (R)-1-(2-(pyridin-3-yl)-6-(4-(trifluoromethyl)phenyl)pyrimidin-4-yl)pyrrolidine-3-carboxylic acid] |

Same assay, conditions: read-out: Assay 1: AhR-Luc Human Antagonism (IC50), unmarked values: kynurenine 200 μM, 6 hours

| IC50 [nM] | SMILES |
| --- | --- |
| > 1000 | Cn1ccc(-c2cc(N3CCC(CO)CC3)nc(-c3cccnc3)n2)n1 [Example 293, 4 (1-(6-(1-methyl-1H-pyrazol-3-yl)-2-(pyridin-3-yl)pyrimidin-4-yl)piperidin-4-yl)methanol] |
